Measurements from PubChem BioAssay (NCI).
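Results reflect a 48-hour exposure of cells in 96-well plates to compound at five concentrations. Here, GI50 denotes the concentration required for 50% inhibition of growth. TGI: concentration producing complete growth inhibition.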

Legend:
Assay in all cases: NCI-60 cell line screen, 48 h
[1] = test system: UO-31 renal
[2] = test system: UACC-62 melanoma
[3] = test system: MDA-MB-231 breast
[4] = test system: SF-295 CNS
[5] = test system: HCT-15 colon
[6] = test system: M14 melanoma
[7] = test system: EKVX NSCLC
[8] = test system: NCI-H522 lung
[9] = test system: MOLT-4 leukemia
[10] = test system: SK-MEL-5 melanoma

Cc1c(C#N)c2nnn(C)c(=O)n2c1-c1ccccc1
TGI [1]: > 100 µM | TGI [2]: > 100 µM | TGI [3]: > 100 µM | TGI [4]: > 100 µM | TGI [5]: > 100 µM | TGI [6]: > 100 µM | TGI [7]: > 100 µM

Fc1c(F)c(C(F)(F)F)c(F)c(F)c1N/N=C\c1c[nH]c2ccccc12
TGI [1]: 3.85 µM | TGI [2]: 10.5 µM | TGI [3]: 12.7 µM | TGI [8]: 5.57 µM | TGI [4]: 6.82 µM | TGI [9]: 10.3 µM | TGI [5]: 12.8 µM | TGI [6]: 4.21 µM | TGI [7]: 11.9 µM | TGI [10]: 4.04 µM

CN(C)c1ccc(/C=C/C=C\C2=CC(=C\C=C/C=C3C=CC(=[N+](C)C)C=C3)/Sc3ccccc32)cc1
TGI [1]: > 100 µM | TGI [2]: > 100 µM | TGI [4]: > 100 µM | TGI [9]: > 100 µM | TGI [5]: > 100 µM | TGI [6]: 27.5 µM | TGI [7]: > 100 µM | TGI [10]: > 100 µM

COc1cc2c(/C=C3/C(=O)Nc4ccc(Cl)cc43)c(Cl)n(Cc3ccccc3)c2cc1C
TGI [1]: 6.78 µM | TGI [2]: 10.3 µM | TGI [3]: 6.04 µM | TGI [4]: 7.19 µM | TGI [9]: 5.02 µM | TGI [5]: 17.8 µM | TGI [6]: 18.2 µM | TGI [10]: 13.7 µM

COc1ccc(-c2ccc(-c3ccc(C(=N)N)nc3)s2)cc1
GI50 [1]: 1.64 µM | TGI [1]: 3.08 µM | GI50 [2]: 1.81 µM | TGI [2]: 3.38 µM | GI50 [3]: 1.75 µM | TGI [3]: 3.28 µM | GI50 [4]: 1.71 µM | TGI [4]: 3.1 µM | GI50 [5]: 1.27 µM | TGI [5]: 2.7 µM | GI50 [6]: 1.8 µM | TGI [6]: 3.35 µM | GI50 [7]: 1.7 µM | TGI [7]: 3.14 µM | GI50 [10]: 1.79 µM | TGI [10]: 3.26 µM

CC(=O)OCC(=O)[C@@]1(O)CC[C@H]2[C@@H]3CCC4=CC(=O)[C@H](C)C[C@]4(C)[C@H]3[C@@H](O)C[C@@]21C
TGI [2]: > 100 µM | TGI [8]: > 100 µM | TGI [4]: > 100 µM | TGI [5]: > 100 µM | TGI [6]: > 100 µM | TGI [7]: > 100 µM | TGI [10]: > 100 µM

COc1ccc(/C=C2\OC(=O)C(Cl)=C2c2ccc(OC)cc2)cc1
TGI [1]: > 100 µM | TGI [2]: > 100 µM | TGI [3]: > 100 µM | TGI [8]: > 100 µM | TGI [4]: > 100 µM | TGI [9]: > 100 µM | TGI [5]: > 100 µM | TGI [6]: > 100 µM | TGI [7]: > 100 µM | TGI [10]: > 100 µM

O=S(=O)([O-])[O-].[Fe+2].c1ccc(/C(=N\Nc2ccccn2)c2ccccn2)cc1
TGI [1]: 13.1 µM | TGI [2]: 5.29 µM | TGI [8]: 3.55 µM | TGI [4]: 8.77 µM | TGI [9]: 6.13 µM | TGI [5]: 11.3 µM | TGI [6]: 4.89 µM | TGI [7]: 4.72 µM | TGI [10]: 4.43 µM

O=C(NO)c1ccc([N+](=O)[O-])cc1
TGI [1]: > 100 µM | TGI [2]: 50.5 µM | TGI [8]: 97.2 µM | TGI [4]: > 100 µM | TGI [9]: > 100 µM | TGI [5]: > 100 µM | TGI [6]: > 100 µM | TGI [7]: > 100 µM | TGI [10]: > 100 µM

COc1ccc2c(c1)CC[C@@H]1[C@@H]2CC[C@]2(C)C(=O)C3(CCCCC3)C[C@@H]12
GI50 [1]: > 100 µM | TGI [1]: > 100 µM | GI50 [2]: > 100 µM | TGI [2]: > 100 µM | GI50 [3]: > 100 µM | TGI [3]: > 100 µM | GI50 [8]: > 100 µM | TGI [8]: > 100 µM | GI50 [4]: > 100 µM | TGI [4]: > 100 µM | GI50 [9]: > 100 µM | TGI [9]: > 100 µM | GI50 [5]: > 100 µM | TGI [5]: > 100 µM | GI50 [6]: > 100 µM | TGI [6]: > 100 µM | GI50 [7]: > 100 µM | TGI [7]: > 100 µM | GI50 [10]: > 100 µM | TGI [10]: > 100 µM
